pIC50: −log10 of the molar value. Active and inactive are the calls of the source. The calls are words filed in the database; no cut-off is given here.
Tests used:
[1] = (§1) Cytotoxicity against human NCI-H2122 cells under anchorage-independent condition assessed as cell growth inhibition after 10 days by nitro blue tetrazolium-based microscopic analysis; format: functional; settings: NCI-H2122, 240 h
[2] = Plasma concentration in mouse xenografted with human NCI-H2122 cells at 50 mg/kg, ip after 3 hrs by LC-MS/MS analysis; format: ADME, organism-based
NCI-H2122 = assay: as §1; format: functional
[3] = Drug uptake in liver of mouse xenografted with human NCI-H2122 cells at 50 mg/kg, ip after 3 hrs by LC-MS/MS analysis; format: ADME, organism-based; settings: read-out: Drug uptake
[4] = biological target: T1, Ras-related protein Ral-A (Homo sapiens) (UniProt P11233); assay: Inhibition of RalA activity in human H2122 spheroids after 4 hrs by RalBP1 pull down assay
T1 sequence (whole entry): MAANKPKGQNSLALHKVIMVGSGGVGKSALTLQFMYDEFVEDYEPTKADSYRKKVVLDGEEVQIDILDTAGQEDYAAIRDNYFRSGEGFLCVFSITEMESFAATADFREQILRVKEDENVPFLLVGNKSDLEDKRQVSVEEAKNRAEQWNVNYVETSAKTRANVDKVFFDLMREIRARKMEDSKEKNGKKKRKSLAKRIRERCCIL

[5] = Drug uptake in lungs of mouse xenografted with human NCI-H2122 cells at 50 mg/kg, ip after 3 hrs by LC-MS/MS analysis; format: ADME, organism-based; settings: lung, read-out: Drug uptake
[6] = biological target: T2, Ras-related protein Ral-B (Homo sapiens) (UniProt P11234); assay: Inhibition of RalB activity in human H2122 spheroids after 4 hrs by RalBP1 pull down assay
T2 sequence (whole entry): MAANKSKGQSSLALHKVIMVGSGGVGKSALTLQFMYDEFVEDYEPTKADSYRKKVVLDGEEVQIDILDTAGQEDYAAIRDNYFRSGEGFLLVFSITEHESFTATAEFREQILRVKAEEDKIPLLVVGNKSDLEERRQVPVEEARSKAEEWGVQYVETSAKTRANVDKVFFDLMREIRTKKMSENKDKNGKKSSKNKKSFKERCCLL

[7] = Drug uptake in tumor of mouse xenografted with human NCI-H2122 cells at 50 mg/kg, ip after 3 hrs by LC-MS/MS analysis; format: ADME, organism-based, Neoplasm; settings: read-out: Drug uptake
[8] = Drug uptake in kidney of mouse xenografted with human NCI-H2122 cells at 50 mg/kg, ip after 3 hrs by LC-MS/MS analysis; format: ADME, organism-based; settings: read-out: Drug uptake
[9] = Drug uptake in heart of mouse xenografted with human NCI-H2122 cells at 50 mg/kg, ip after 3 hrs by LC-MS/MS analysis; format: ADME, organism-based; settings: read-out: Drug uptake
[10] = Half life in ip dosed mouse plasma; format: ADME, organism-based
[11] = Drug uptake in brain of mouse xenografted with human NCI-H2122 cells at 50 mg/kg, ip after 3 hrs by LC-MS/MS analysis; format: ADME, organism-based; settings: read-out: Drug uptake
[12] = Drug level in CD1 mouse liver microsomes treated with 6-amino-4-(2,5-dimethoxyphenyl)-3-(naphthalen-2-yl)-1,4-dihydropyrano[2,3-c]pyrazole-5-carbonitrile at 16.7 uM assessed as CYP450-mediated compound formation in presence of NADPH by LC-MS/MS analysis; format: ADME

SMILES	pIC50 [1]	further results
CC(C)c1ccc(C2C(C#N)=C(N)Oc3c2c(-c2ccccc2)nn3C)cc1 (stereo not drawn)	5.27	
COc1ccc(C2C(C#N)=C(N)Oc3c2c(C)nn3C)cc1F (stereo not drawn)	5.24	
Cn1nc(-c2ccccc2)c2c1OC(N)=C(C#N)C2c1ccc(C#N)cc1 (stereo not drawn)	5.28	
Cc1nn(C)c2c1C(c1ccncc1)C(C#N)=C(N)O2 (stereo not drawn)	5.39	
Cn1nc(-c2ccccc2)c2c1OC(N)=C(C#N)C2c1ccc(-n2ccnc2)cc1 (stereo not drawn)		concentration at 3 h [2]: 490 ng/mL; growth inhibition (GI) (NCI-H2122): Active; concentration at 3 h [3]: 980 ng/g; inhibition [4]: Dose-dependent effect; concentration at 3 h [5]: 1090 ng/g; inhibition [6]: Dose-dependent effect; concentration at 3 h [7]: 380 ng/g; concentration at 3 h [8]: 630 ng/g; concentration at 3 h [9]: 930 ng/g; half-life [10]: < 1.5 h; concentration at 3 h [11]: 170 ng/g
Cc1nn(C)c2c1C(c1ccc(-n3ccnc3)cc1)C(C#N)=C(N)O2 (stereo not drawn)	5.77	
COc1ccc(-c2nn(C)c3c2C(c2ccc(F)cc2)C(C#N)=C(N)O3)cc1 (stereo not drawn)	< 5.00	
COc1ccc(C2C(C#N)=C(N)Oc3c2c(-c2ccccc2)nn3C)cc1 (stereo not drawn)	< 5.00	
Cn1nc(-c2ccccc2)c2c1OC(N)=C(C#N)C2c1ccc(C(F)(F)F)cc1 (stereo not drawn)	5.39	
COc1ccc(C2C(C#N)=C(N)Oc3c2c(C)nn3-c2ccccc2)cc1 (stereo not drawn)	5.39	
N#CC1=C(N)Oc2[nH]nc(-c3ccc4ccccc4c3)c2C1c1cc(O)ccc1O (stereo not drawn)		Drug metabolism [12]: Metabolite_Detected
Cn1nc(-c2ccccc2)c2c1OC(N)=C(C#N)C2c1ccc2c(c1)OCCO2 (stereo not drawn)	5.08	
N#CC1=C(N)Oc2c(c(-c3ccccc3)nn2-c2ccccc2)C1c1ccccc1 (stereo not drawn)	5.39	
COc1ccc(-c2nn(-c3ccccc3)c3c2C(c2ccc(OC)cc2)C(C#N)=C(N)O3)cc1 (stereo not drawn)	5.96	
Cn1nc(-c2ccccc2)c2c1OC(N)=C(C#N)C2c1cccc(Br)n1 (stereo not drawn)	5.77	
Cc1nn(C)c2c1C(c1ccc(C#N)cc1)C(C#N)=C(N)O2 (stereo not drawn)	5.25	
COc1ccc(C2C(C#N)=C(N)Oc3c2c(-c2ccccc2)nn3C)cc1F (stereo not drawn)	< 5.00	
Cc1nn(C)c2c1C(c1cccnc1)C(C#N)=C(N)O2 (stereo not drawn)	5.06	
Cc1nn(C)c2c1C(c1ccccc1)C(C#N)=C(N)O2 (stereo not drawn)	5.04	
COc1ccc(-c2nn(-c3ccccc3)c3c2C(c2ccc(F)cc2)C(C#N)=C(N)O3)cc1 (stereo not drawn)	5.22	
COc1ccc(C2C(C#N)=C(N)Oc3c2c(C)nn3C)cc1 (stereo not drawn)	5.07	
Cn1nc(-c2ccccc2)c2c1OC(N)=C(C#N)C2c1ccc(F)cc1 (stereo not drawn)	< 5.00	
Cc1nn(C)c2c1C(c1cccc(Br)n1)C(C#N)=C(N)O2 (stereo not drawn)	5.62	

— ChEMBL document CHEMBL3870328, “Synthesis of novel Ral inhibitors: An in vitro and in vivo study” (Bioorg Med Chem Lett, 2016)
